Reference: patent US11919965B2, “Methods of treating multiple myeloma with bispecific anti-BCMA x anti-CD3 antibodies” (Regeneron Pharmaceuticals, Inc., priority 2019, dated 2024)
Like-named read-outs stand apart in the source and are kept apart here.

Columns and labels:
[1] = test system: BCMA+ MOLP-8-luciferase tumors; test: Xenogenic tumor model, i.v. MOLP-8-luciferase in PBMC-engrafted NSG mice, bioluminescence (Example 14); assay type: in vivo, mouse; settings: 4 mg/kg
Method: To determine the in vivo efficacy of anti-BCMA×anti-CD3 bispecific antibodies (Abs), a xenogenic tumor study was performed. On day −11, immunodeficient NOD.Cg-Prkdc^scidII2rg^tm1Wjl/SzJ (NSG) mice were intraperitoneally injected with 4×10^6 human peripheral blood mononuclear cells (PBMC) from a normal, healthy donor. On day 0, the mice were intravenously administered 2×10^6 BCMA^+ MOLP-8 human multiple myeloma tumor cells that were engineered to also express firefly luciferase (MOLP-8-luciferase cells). […] The mice were administered these Abs twice more on days 3 and 7, for a total of three doses. Tumor growth was assessed over 48 days by measuring tumor bioluminescence (BLI) in anesthetized animals. As a positive control, a group of mice (n=5) was given only MOLP-8-luciferase cells, but not PBMC or antibody.
Implantation and measurement of xenogenic tumors: On day −11, immunodeficient NOD.Cg-Prkdc^scidII2rg^tm1Wjl/SzJ (NSG) mice were intraperitoneally injected with 5×10^6 human PBMC from a normal, healthy donor. On day 0, the mice were intravenously administered 2×10^6 BCMA^+ MOLP-8-luciferase cells. […] The mice were administered these Abs twice more on days 3 and 7, for a total of three doses. Tumor growth was assessed over 48 days by measuring tumor BLI in anesthetized animals. As a positive control, a group of mice (n=5) was given only MOLP-8-luciferase cells, but not PBMC or antibody.
Measurement of xenogenic tumor growth: BLI imaging was used to measure tumor burden. Mice were injected IP with 150 mg/kg of the luciferase substrate D-luciferin suspended in PBS. Five minutes after this injection, BLI imaging of the mice was performed under isoflurane anesthesia using the Xenogen IVIS system. Image acquisition was carried out with the field of view at D, subject height of 1.5 cm, and medium binning level with automatic exposure time determined by the Living Image Software. BLI signals were extracted using Living Image software: regions of interest were drawn around each tumor mass and photon intensities were recorded as p/s/cm2/sr.

[2] = test system: primary cynomolgus monkey CD138+ plasma cells; test: Autologous T cell-mediated killing of plasma cells and T cell activation (% CD25 upregulation); assay type: cell-based
Method: (§1) The specific killing of enriched CD138^+ human or cynomolgus monkey plasma cells by unstimulated autologous T cells was assessed by flow cytometry. Human or cynomolgus bone marrow aspirates and blood were provided within 24 hours of harvest. CD138^+ plasma cells were enriched from bone marrow by positive selection using the EasySep Human CD138^+ Positive Selection kit according to the manufacturer's instructions. PBMC from whole blood were isolated by density separation. PBMC were labeled with 1 μM of VYBRANT™ CFDA-SE fluorescent tracking dye. […] At the end of the culture, surviving CD138^+ plasma cells were analyzed by flow cytometry, utilizing fixable LIVE/DEAD dye and plasma cell specific cell surface markers. Percent viability was normalized to control condition (plasma cells in the presence of PBMC only). T cell activation was assessed by flow cytometry. Activation is reported as the percentage of CD2^+/CD4^+ or CD2^+/CD8^+/CD16^− T cells expressing CD25. Percent T cell activation was normalized to control condition (plasma cells in the presence of PBMC only).

[3] = test system: primary human CD138+ plasma cells; test: as above; assay type: cell-based; settings: for EC50: read-out: T Cell Activation (% CD25 Upregulation) CD8+ T cells EC50
Method: as §1

MC38/BCMA tumors = test: Syngenic tumor model in CD3-humanized mice (Example 16); assay type: in vivo, mouse
Method: (§2) To determine the in vivo efficacy of anti-BCMA×anti-CD3 bispecific antibodies (Abs), a syngenic tumor study was performed in mice expressing human CD3. C57BL/6 mice that express human CD3deg in place of murine CD3deg (CD3-humanized mice) were subcutaneously implanted with either 0.5×10^6 B16 melanoma cells that have been engineered to express full-length human BCMA (B16/BCMA cells) or 1×10^6 MC38 colon carcinoma cells that have been engineered to express full-length human BCMA (MC38/BCMA). […] The mice were administered these Abs twice more on days 4 and 7 for a total of three doses, and tumor growth was assessed throughout the experiment.
(§3) Implantation and measurement of syngenic tumors: C57BL/6 mice that express human CD3deg in place of murine CD3deg (CD3-humanized mice) were subcutaneously implanted with either 0.5×10^6 B16F10 melanoma cells that have been engineered to express full-length human BCMA (B16/BCMA cells) or 1×10^6 MC38 colon carcinoma cells that have been engineered to express full-length human BCMA (MC38/BCMA). […] The mice were administered these Abs twice more on days 4 and 7 for a total of three doses, and tumor growth was assessed throughout the experiment.
(§4) Calculation of syngenic tumor growth and inhibition: In order to determine tumor volume by external caliper, the greatest longitudinal diameter (length in mm) and the greatest transverse diameter (width in mm) were determined. Tumor volumes based on caliper measurements were calculated by the formula: Volume (mm^3)=(length×width^2)/2.

B16/BCMA tumors = test: as above; assay type: in vivo, mouse
Method: as §2, §3, §4

## REGN5458: anti-BCMA×anti-CD3 bispecific antibody: mAb21581 BCMA heavy chain, mAb7221G CD3 heavy chain and common light chain; SEQ ID NOs 126, 127, 129
[1]
  Radiance [p/s/cm2^2/sr] 8 days post-implantation (mean ± SEM): 5.66E+05 ± 1.97E+04 p/s/cm2^2/sr
  Radiance [p/s/cm2^2/sr] 22 days post-implantation (mean ± SEM): 1.08E+06 ± 1.71E+05 p/s/cm2^2/sr
  Radiance [p/s/cm2^2/sr] 24 days post-implantation (mean ± SEM): 1.02E+06 ± 1.99E+05 p/s/cm2^2/sr
  Radiance [p/s/cm2^2/sr] 28 days post-implantation (mean ± SEM): 3.56E+06 ± 6.34E+05 p/s/cm2^2/sr
  Radiance [p/s/cm2^2/sr] 30 days post-implantation (mean ± SEM): 6.92E+06 ± 1.40E+06 p/s/cm2^2/sr
  Radiance [p/s/cm2^2/sr] 34 days post-implantation (mean ± SEM): 2.65E+07 ± 1.36E+07 p/s/cm2^2/sr
  Radiance [p/s/cm2^2/sr] 37 days post-implantation (mean ± SEM): 4.52E+07 ± 1.40E+07 p/s/cm2^2/sr
[1]; three doses
  tumor growth: delayed the growth
[2]; Cynomolgus Monkey Donor 1 plasma cells, autologous T cells, maximum
  T Cell Activation (% CD25 Upregulation) CD8+ T cells % Activation: 12%
[2]; Cynomolgus Monkey Donor 1 plasma cells, autologous T cells, read-out: T Cell Activation (% CD25 Upregulation) CD8+ T cells EC50
  EC50: 22.4 nM
[2]; Cynomolgus Monkey Donor 2 plasma cells, autologous T cells, maximum
  T Cell Activation (% CD25 Upregulation) CD4+ T cells % Activation: 16%
[2]; Cynomolgus Monkey Donor 2 plasma cells, autologous T cells, read-out: T Cell Activation (% CD25 Upregulation) CD4+ T cells EC50
  EC50: ~18.1 nM
[2]; donor 1
  maximum percent T cell activation, CD8+ T cells: 12%
[2]; donor 1, read-out: EC50, CD4+ T cell activation
  EC50: 28.1 nM
[2]; donor 1, read-out: EC50, CD8+ T cell activation
  EC50: 22.4 nM
[2]; donor 2
  maximum percent T cell activation, CD4+ T cells: 16%
[2]; donor 2, read-out: EC50, CD4+ T cell activation
  EC50: 18.1 nM
[2]; donor 2, read-out: EC50, CD8+ T cell activation
  EC50: 76.7 nM
[3]; Human Donor 1 plasma cells, autologous primary human T cells
  EC50: 0.214 nM
[3]; Human Donor 2 plasma cells, autologous primary human T cells, maximum
  T Cell Activation (% CD25 Upregulation) CD8+ T cells % Activation: 36%
[3]; Human Donor 2 plasma cells, autologous primary human T cells
  EC50: 0.86 nM
[3]; donor 2
  maximum percent CD8+ T cell activation: 36%
MC38/BCMA tumors; 0.4 or 0.04 mg/kg
  tumor growth: suppress the growth of both tumor lines in a dose-dependent manner
MC38/BCMA tumors; MC38/BCMA Tumor, 0.04 mg/kg
  Average Tumor Size (mm3) ± SEM on Day 5: 11.9 ± 2.9 mm3
  Average Tumor Size (mm3) ± SEM on Day 10: 66.7 ± 22.5 mm3
  Average Tumor Size (mm3) ± SEM on Day 14: 273.3 ± 115.3 mm3
  Average Tumor Size (mm3) ± SEM on Day 18: 641.5 ± 309.8 mm3
MC38/BCMA tumors; MC38/BCMA Tumor, 0.4 mg/kg
  Average Tumor Size (mm3) ± SEM on Day 10: 0.0 ± 0.0 mm3
  Average Tumor Size (mm3) ± SEM on Day 14: 2.9 ± 2.9 mm3
  Average Tumor Size (mm3) ± SEM on Day 18: 7.5 ± 7.5 mm3
B16/BCMA tumors; 0.4 or 0.04 mg/kg
  tumor growth: suppress the growth of both tumor lines in a dose-dependent manner
B16/BCMA tumors; B16/BCMA Tumor, 0.04 mg/kg
  Average Tumor Size (mm3) ± SEM on Day 5: 3.3 ± 2.2 mm3
  Average Tumor Size (mm3) ± SEM on Day 10: 15.4 ± 12.5 mm3
  Average Tumor Size (mm3) ± SEM on Day 14: 81.4 ± 49.2 mm3
B16/BCMA tumors; B16/BCMA Tumor, 0.4 mg/kg
  Average Tumor Size (mm3) ± SEM on Day 5: 0.0 ± 0.0 mm3
  Average Tumor Size (mm3) ± SEM on Day 10: 0.0 ± 0.0 mm3
  Average Tumor Size (mm3) ± SEM on Day 14: 8.1 ± 4.4 mm3
  Average Tumor Size (mm3) ± SEM on Day 18: 47.1 ± 17.0 mm3
